The record followed here is ChEMBL document CHEMBL1149005, “Studies on zoapatle, II. Leucanthanolide, a novel sesquiterpene lactone from Montanoa leucantha ssp. leucantha” (1986).

The subject of one experiment is P388. Nature of the experiment: Cytotoxicity against mouse P388 cells. It is filed as functional. Conditions: read-out: ED50 (the source's name).
For another experiment, the system named is Cavia porcellus. Nature of the experiment: Uteroevacuant activity in pregnant guinea pig at 20 mg/kg, ip administered on day 22 of gestation measured daily for 7 days. Format: functional, organism-based. On the set-up: dose 20 mg/kg.
The test system of another experiment is KB. The experiment is described as follows: Cytotoxicity against human KB cells. It is filed as functional. Conditions: read-out: ED50 (the source's name).

The structures appear in SMILES notation. In brackets after ≈: the same amount, converted by molar mass. Activity calls are given as the source filed them. The calls are words filed in the database; no cut-off is given here.

Consider `C=C1C(=O)O[C@@H]2/C=C(\C)CC/C=C(\C)[C@@H](OC(=O)C(C)C)[C@H](O)[C@@]12O` [LEUCANTHANOLIDE], for which the EC50 in the experiment on P388 turned out to be 0.93 µg/mL (≈ 2.65 µM); in the experiment with KB it was 0.57 µg/mL (≈ 1.63 µM). Further, the result with Cavia porcellus was inactive.
